Source: US20260345596A1, “TREATMENT OF LOCALLY ADVANCED OR METASTATIC UROTHELIAL CARCINOMA WITH ERDAFINITIB” (priority 2023, published 2026)
“And” between values parts separate entries of the source, which are not always exact repeats. Equal values may be shown once. Marks after values point to notes of the source that are not given here.

Assay: Study BLC3001 (NCT03390504, THOR) Cohort 1: safety, adverse events, laboratory abnormalities and exposure
[1] = adverse events leading to death
[2] = any grade, adverse events of interest
[3] = any grade, serious adverse events, any cause
[4] = grade 3-4 adverse events of interest
[5] = leading to treatment discontinuation

## COc1cc(OC)cc(N(CCNC(C)C)c2ccc3ncc(-c4cnn(C)c4)nc3c2)c1 [Erdafitinib, N-(3,5-dimethoxyphenyl)-N′-(1-methylethyl)-N-[3-(1-methyl-1H-pyrazol-4-yl)quinoxalin-6-yl]ethane-1,2-diamine]
Grade ≥3, treatment-related
  Aspartate aminotransferase increased: 2 (1.5) no. (%)
  Asthenia: 0 no. (%)
  Constipation: 0 no. (%)
  Decreased appetite: 3 (2.2) no. (%)
  Diarrhea: 4 (3.0) no. (%)
  Dry eye: 0 no. (%)
  Dry mouth: 0 no. (%)
  Dry skin: 2 (1.5) no. (%)
  Dysgeusia: 1 (0.7) no. (%)
  Fatigue: 0 no. (%)
  Hyperphosphatemia: 7 (5.2) no. (%)
  Nausea: 1 (0.7) no. (%)
  Neutropenia: 0 no. (%)
  Onycholysis: 8 (5.9) no. (%)
  Onychomadesis: 2 (1.5) no. (%)
  Palmar-plantar erythrodysesthesia syndrome: 13 (9.6) no. (%)
  Stomatitis: 11 (8.1) no. (%)
[1]
  Atypical pneumonia: 0 no. (%)
  Cardiorespiratory arrest: 1 (0.7) no. (%)
  Febrile bone marrow aplasia: 0 no. (%)
  Febrile neutropenia: 0 no. (%)
  Pneumonia necrotizing: 1 (0.7) no. (%)
  Renal failure: 1 (0.7) no. (%)
  Septic shock: 0 no. (%)
  Sudden death: 2 (1.5) no. (%)
Any cause
  Adverse events leading to treatment discontinuation: 19 (14.1%) no. (%) and 19 (14.1) no. (%)
Any grade
  Central serous retinopathy: 23 (17.0%) n (%) and 23 (17.0) n (%)
  Eye disorders (excluding central serous retinopathy): 57 (42.2) n (%)
  Nail disorders: 90 (66.7) n (%)
  Skin disorders: 74 (54.8) n (%)
[2]
  Central serous retinopathy: 23 (17.0) no. (%)
  Chorioretinopathy: 8 (5.9) no. (%)
  Detachment of macular retinal pigment epithelium: 1 (0.7) no. (%)
  Detachment of retinal pigment epithelium: 7 (5.2) no. (%)
  Eye disorders (excluding central serous retinopathy): 57 (42.2) no. (%)
  Macular detachment: 2 (1.5) no. (%)
  Nail disorders: 90 (66.7) no. (%)
  Retinopathy: 2 (1.5) no. (%)
  Skin disorders: 74 (54.8) no. (%)
  Subretinal fluid: 5 (3.7) no. (%)
[3]
  Hematuria: 5 (3.7) no. (%)
  Hyponatremia: 3 (2.2) no. (%)
  Urinary tract infection: 6 (4.4) no. (%)
Any grade, treatment-emergent
  Neutropenia: 0 no.
Any grade, treatment-related
  Alanine aminotransferase increased: 29 (21.5) no. (%)
  Alopecia: 32 (23.7) no. (%)
  Anemia: 16 (11.9) no. (%)
  Aspartate aminotransferase increased: 25 (18.5) no. (%)
  Asthenia: 11 (8.1) no. (%)
  Constipation: 12 (8.9) no. (%)
  Decreased appetite: 28 (20.7) no. (%)
  Diarrhea: 74 (54.8) no. (%)
  Dry eye: 22 (16.3) no. (%)
  Dry mouth: 52 (38.5) no. (%)
  Dry skin: 30 (22.2) no. (%)
  Dysgeusia: 34 (25.2) no. (%)
  Fatigue: 18 (13.3) no. (%)
  Hyperphosphatemia: 106 (78.5) no. (%)
  Nausea: 14 (10.4) no. (%)
  Neutropenia: 0 no. (%)
  Onycholysis: 31 (23.0) no. (%)
  Onychomadesis: 27 (20.0) no. (%)
  Palmar-plantar erythrodysesthesia syndrome: 41 (30.4) no. (%)
  Stomatitis: 62 (45.9) no. (%)
count
  Treatment-related deaths: 1
Grade 3-4
  Central serous retinopathy: 3 (2.2) n (%)
  Eye disorders (excluding central serous retinopathy): 3 (2.2) n (%)
  Nail disorders: 15 (11.1) n (%)
  Skin disorders: 16 (11.9) n (%)
[4]
  Central serous retinopathy: 2.2%
  Nail disorders: 11.1%
  Skin disorders: 11.9%
Grade ≥3, treatment-related
  Onycholysis: 5.9%
  Palmar-plantar erythrodysesthesia syndrome: 9.6%
  Stomatitis: 8.1%
In vivo
  Treatment-emergent adverse events that led to death: 4.4%
  Treatment-related serious adverse events: 13.3%
investigator-assessed
  Treatment-related adverse events that led to death: 0.7%
[5]
  Anemia: 0 no. (%)
  Any patient with one or more adverse events leading to treatment discontinuation: 19 (14.1) no. (%)
  Atypical pneumonia: 0 no. (%)
  COVID-19: 1 (0.7) no. (%)
  Cardiorespiratory arrest: 1 (0.7) no. (%)
  Detachment of retinal pigment epithelium: 1 (0.7) no. (%)
  Diarrhea: 0 no. (%)
  Dry skin: 1 (0.7) no. (%)
  Dysphagia: 1 (0.7) no. (%)
  Dyspnea: 0 no. (%)
  Edema peripheral: 0 no. (%)
  Extremity necrosis: 1 (0.7) no. (%)
  Febrile bone marrow aplasia: 0 no. (%)
  Febrile neutropenia: 0 no. (%)
  Fractured sacrum: 0 no. (%)
  Hematuria: 1 (0.7) no. (%)
  Hyponatremia: 0 no. (%)
  Hypotension: 1 (0.7) no. (%)
  Ileus: 0 no. (%)
  Keratitis: 1 (0.7) no. (%)
  Nail dystrophy: 1 (0.7) no. (%)
  Onycholysis: 2 (1.5) no. (%)
  Paronychia: 1 (0.7) no. (%)
  Peripheral sensory neuropathy: 0 no. (%)
  Pneumonia necrotizing: 1 (0.7) no. (%)
  Pneumonitis: 0 no. (%)
  Renal failure: 1 (0.7) no. (%)
  Sciatica: 0 no. (%)
  Septic shock: 0 no. (%)
  Sudden death: 2 (1.5) no. (%)
  Syncope: 0 no. (%)
  Urinary retention: 1 (0.7) no. (%)
  Vision blurred: 1 (0.7) no. (%)
  Vomiting: 0 no. (%)
Safety population
  Adverse events leading to dose interruption: 97 (71.9) no. (%)
  Adverse events leading to dose reduction: 93 (68.9) no. (%)
  Adverse events of any cause: 98.5%
  Any adverse events (treatment-emergent): 133 (98.5%) no. (%) and 133 (98.5) no. (%)
  COVID-19-related adverse events: 12 (8.9) no. (%)
  COVID-19-related serious adverse events: 1 (0.7) no. (%)
  Grade 3-4 serious adverse events: 52 (38.5) no. (%)
  Grade 3-4 treatment-related adverse events: 45.9%
  Related adverse events (≥1 treatment-related AE, any grade): 131 (97.0) no. (%)
  Related adverse events leading to death: 1 (0.7) no. (%)
  Related adverse events leading to dose interruption: 89 (65.9) no. (%)
  Related adverse events leading to dose reduction: 89 (65.9) no. (%)
  Related adverse events leading to treatment discontinuation: 11 (8.1%)^b no. (%) and 11 (8.1) no. (%)
  Related grade 3-4 adverse events: 62 (45.9) no. (%)
  Related grade 3-4 serious adverse events: 16 (11.9) no. (%)
  Related serious adverse events: 18 (13.3) no. (%)
treatment-emergent
  Adverse events leading to death: 6 (4.4%) no. (%) and 6 (4.4) no. (%)
  Grade 3-4 adverse events: 85 (63.0%) no. (%) and 85 (63.0) no. (%)
  Serious adverse events: 56 (41.5%) no. (%) and 56 (41.5) no. (%)
treatment-emergent, any grade
  Clinically important TEAEs: 125 (92.6%) n (%)
treatment-related AEs
  Eye disorders leading to discontinuation: ^bMost frequent treatment-related AEs leading to discontinuation of erdafitinib included eye disorders (3 patients) and skin and subcutaneous disorders (3 patients).
treatment-related, any grade
  Diarrhea: 74 (54.8) n (%)
  Dry mouth: 52 (38.5) n (%)
  Hyperphosphatemia: 106 (78.5) n (%)
  Onycholysis: 31 (23.0) n (%)
  PPE syndrome: 41 (30.4) n (%)
  Stomatitis: 62 (45.9) n (%)
treatment-related, grade 3-4
  Diarrhea: 4 (3.0) n (%)
  Dry mouth: 0 n (%)
  Hyperphosphatemia: 7 (5.2) n (%)
  Onycholysis: 8 (5.9) n (%)
  PPE syndrome: 13 (9.6) n (%)
  Stomatitis: 11 (8.1) n (%)
Versus chemotherapy
  Lowering of discontinuation due to treatment-related adverse events: about 5.3%
